According to BindingDB's records for doi:10.7270/Q2XP73JZ (The Scripps Research Institute Molecular Screening Center, 2013):

Target: T1, Methionine--tRNA ligase (Trypanosoma brucei brucei (strain 927/4 GUTat10.1), UniProt Q38C91)
T1 sequence (Q38C91 whole entry): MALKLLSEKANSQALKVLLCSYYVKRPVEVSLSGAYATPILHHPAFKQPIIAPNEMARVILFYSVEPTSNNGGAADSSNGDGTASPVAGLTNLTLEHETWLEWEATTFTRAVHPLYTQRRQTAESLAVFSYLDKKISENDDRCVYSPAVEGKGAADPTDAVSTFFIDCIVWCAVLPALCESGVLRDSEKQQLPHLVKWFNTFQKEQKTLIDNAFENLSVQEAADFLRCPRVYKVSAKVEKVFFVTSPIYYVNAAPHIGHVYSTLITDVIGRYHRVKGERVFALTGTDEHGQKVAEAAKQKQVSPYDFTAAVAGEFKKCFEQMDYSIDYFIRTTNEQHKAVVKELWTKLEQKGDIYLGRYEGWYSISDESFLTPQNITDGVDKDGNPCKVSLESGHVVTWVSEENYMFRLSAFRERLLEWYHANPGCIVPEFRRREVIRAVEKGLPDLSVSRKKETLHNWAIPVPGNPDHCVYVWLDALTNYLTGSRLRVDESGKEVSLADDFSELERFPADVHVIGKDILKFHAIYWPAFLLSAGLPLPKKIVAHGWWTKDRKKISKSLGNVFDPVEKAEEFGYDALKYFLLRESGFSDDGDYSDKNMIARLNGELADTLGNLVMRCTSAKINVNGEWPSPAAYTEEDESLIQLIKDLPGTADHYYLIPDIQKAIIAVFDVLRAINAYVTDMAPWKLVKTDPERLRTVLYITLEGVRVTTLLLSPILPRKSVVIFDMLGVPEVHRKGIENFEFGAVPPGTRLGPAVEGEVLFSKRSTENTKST

| SMILES | IC50 [µM] |
| --- | --- |
| Cc1ccc(C(=O)NN2C(=O)/C(=C/c3nc4ccccc4[nH]3)SC2=S)cc1 | > 119 |
| O=C(NCc1cc(Br)cc(Br)c1OC(=O)c1ccccc1[N+](=O)[O-])c1ccccc1 | > 119 |
| COC(=O)C(C=Nc1ccccc1)NC(=O)c1ccc(Cl)cc1Cl (stereo not drawn) | 2.71 |
| N#CC(N=Nc1cc(Cl)cc(Cl)c1)c1nnc2n1CCCCC2 (stereo not drawn) | 16.6 |
| Cc1cc2c(c(=O)n1CC1CCCO1)C(c1ccc3c(c1)OCO3)C(C#N)C(=N)O2 (stereo not drawn) | > 119 |
| COC(=O)Cn1c(CC(=O)Nc2ccc(Cl)cc2)c(O)n(-c2ccc(Cl)cc2)c1=S | 19.7 |
| c1ccc2[nH]c(N=NCc3c[nH]c4ccccc34)nc2c1 [1-(1H-benzimidazol-2-yl)-2-[(Z)-indol-3-ylidenemethyl]diazane] | 32.2 |
| Oc1cc(N(CCc2ccccc2)C(=S)Nc2ccccc2)c(O)n1-c1ccc(Br)cc1 [1-[1-(4-bromophenyl)-2,5-bis(oxidanylidene)pyrrolidin-3-yl]-3-phenyl-1-(2-phenylethyl)thiourea] | 0.46 |
| N#Cc1ccccc1CSc1ccc(-c2nc3ccccc3[nH]2)cn1 [2-[5-(1H-Benzoimidazol-2-yl)-pyridin-2-ylsulfanylmethyl]-benzonitrile] | > 119 |
| Cc1cc(Br)cc(Br)c1OCC(=O)NNC(=O)Nc1ccccc1 [2-[(2,4-dibromo-6-methylphenoxy)acetyl]-N-phenylhydrazinecarboxamide] | > 4.39 |
| N#Cc1ccccc1CSc1nc2cc(Br)c[nH]c-2n1 [2-[(6-bromo-1H-imidazo[4,5-b]pyridin-2-yl)sulfanylmethyl]benzonitrile] | > 119 |
| C=C(c1ccc(O)cc1)c1sc(=S)n(CCC(=O)O)c1O [3-[(5Z)-5-[1-(4-hydroxyphenyl)ethylidene]-4-oxidanylidene-2-sulfanylidene-1,3-thiazolidin-3-yl]propanoic acid] | 9.47 |
| COc1ccc(NC(=O)COC(=O)CCCOc2ccc(Cl)cc2Cl)cc1 [4-(2,4-dichlorophenoxy)butanoic acid [2-(4-methoxyanilino)-2-oxoethyl] ester] | > 119 |
| O=C(Nc1cccnc1)c1ccc(COc2cc(Cl)ccc2Cl)o1 [5-[(2,5-dichlorophenoxy)methyl]-N-(3-pyridinyl)-2-furancarboxamide] | > 119 |
| Fc1ccccc1CSc1nc2ncc(Br)cc2[nH]1 [6-bromanyl-2-[(2-fluorophenyl)methylsulfanyl]-1H-imidazo[4,5-b]pyridine] | > 119 |
| COc1ccccc1NS(=O)(=O)c1cc(NC(=O)Nc2ccccc2)ccc1N1CCCCC1 [MLS000401499] | > 119 |
| O=C(CSc1ccc(-c2nc3ccccc3[nH]2)cn1)Nc1ccc(S(=O)(=O)N2CCCC2)cc1 [MLS000548715] | > 119 |

| SMILES | IC50 [µM] |
| --- | --- |
| Cc1cc(Cl)ccc1OCCCC(=O)NNC(=O)c1ccccc1O [N'-[4-(4-chloro-2-methylphenoxy)butanoyl]-2-hydroxybenzohydrazide] | > 119 |
| Cc1[nH]c2ccccc2c1CN=Nc1nc2ccccc2[nH]1 [N-(1H-Benzoimidazol-2-yl)-N'-[1-(2-methyl-1H-indol-3-yl)-meth-(E)-ylidene]-hydrazine] | 36.9 |
| Cc1ccc2nc(-c3ccc(SCC(=O)Nc4ccc5c(c4)OCCO5)nc3)[nH]c2c1 [N-(2,3-dihydro-1,4-benzodioxin-6-yl)-2-[[5-(6-methyl-1H-benzimidazol-2-yl)-2-pyridinyl]thio]acetamide] | > 119 |
| COc1cccc(NC(=O)CSC(N)=O)c1 [S-[2-(3-methoxyanilino)-2-oxoethyl] thiocarbamate] | 1.57 |
| O=C(Nc1ccccc1)Nc1ccc(S(=O)(=O)N2CCCCC2)cc1 [SMR000070822] | > 119 |
| Oc1cc(SCc2nc3ccccc3[nH]2)c(O)n1-c1cccc(Cl)c1 [SMR000143477] | 2.6 |
| COc1cc(CN=Nc2nc3ccccc3[nH]2)ccc1O [SMR000212232] | 102 |
| O=C(Cc1ccc(Br)cc1)NNC(=O)Nc1ccc(Cl)cc1 [SMR000227759] | > 119 |
| O=C(CSc1nc2ccc(Cl)cc2[nH]1)c1c[nH]c2ccccc12 [SMR000261830] | > 119 |
| Clc1cccc(N=NC(Cc2nc3ccccc3[nH]2)c2ccccc2)c1 (stereo not drawn) [SMR000263830] | 3.09 |
| COc1ccc(CC(=O)OCC(=O)Nc2ccc(Br)cc2)cc1 [SMR000353950] | > 119 |
| CC(N=Nc1nc2ccccc2[nH]1)c1ccc2c(c1)OCO2 (stereo not drawn) [SMR000354227] | > 119 |
| COc1cc(OC)c(OC)cc1CN=Nc1nc2ccccc2[nH]1 [SMR000440059] | > 119 |
| Cc1csc(CNc2ncnc3ccc(-c4ccccc4Cl)cc23)c1 [SMR001318042] | > 119 |
| COc1ccc(NC(=O)Nc2cccc3cccnc23)cc1 [US9034574, XXIV] | 2.82 |
| O=C(OCC(=O)c1c[nH]c2ccccc12)c1ccc(OC(F)F)cc1 [[2-(1H-indol-3-yl)-2-oxidanylidene-ethyl] 4-[bis(fluoranyl)methoxy]benzoate] | > 119 |
